Experiments:
[1] = tested on: MHC class II molecules on fixed or non-fixed HLA-DR4 transgenic mouse splenocytes (hybridoma SC3 readout); assay: Fixed APC T-cell hybridoma screen; format: cell-based; settings: co-culture with formaldehyde fixed and non-fixed HLA-DR4 splenocytes, 48 h
Procedure: Splenocytes from HLA-DR4 transgenic mice were formaldehyde fixed by the following protocol performed at room temperature; 5 min incubation with 0.5% w/v formaldehyde in PBS at 1×10^6 cells/mL quenched by addition of an equal volume of 0.4 M glycine in PBS solution for a further 5 min, before three washes with cold PBS. T-cell hybridoma screens were set up using 1×10^5 hybridomas and either 2×10^5 formaldehyde fixed APCs or 2×10^5 non-fixed APCs for 48 h co-culture with stimulant or control and responses measured by IL-2 secretion.
The next step was to test if GAD65 P10.5.C+1.6K (P10Sol; SEQ ID NO 23) could bind to: (i) MHC class II molecules without antigen processing and, (ii) to steady-state CD11c^+ APCs. These properties are good indicators of whether a peptide can induce tolerance and be characterised as an apitope (Shepard et al., 2021). Formaldehyde fixation of splenocytes inhibits antigen processing and so to test whether GAD65 P10Sol could bind directly to cell-surface MHC class II without antigen processing, GAD65 P10-specific hybridoma SC3 was co-cultured with fixed or non-fixed splenocytes from HLA-DR4 transgenic mice. […] To test whether P10Sol could bind to steady-state CD11c^+ APCs in vivo, HLA-DR4 transgenic mice were injected with 80 μg of P10Sol or PBS, with CD11c^+ splenocytes isolated 1 h later and co-cultured with GAD65 P10 hybridomas SC3 or SC22. […]

[2] = tested on: peripheral blood mononuclear cells (PBMCs); assay: Human PBMC 3H-thymidine incorporation assay; format: cell-based; settings: for positive response rate in 3H-thymidine incorporation assay: day 7, positive = SI>=3 and ccpm >1000
Procedure: Fresh blood samples were collected in CPDA-tubes. PBMCs from lymphocyte cones or fresh blood were isolated by Ficoll gradient centrifugation, frozen in 40% RPMI-1640, 50% heat inactivated fetal bovine serum (Sigma; F9665) and 10% DMSO and stored in liquid nitrogen until required. Thawed PBMCs were cultured at 1.5×10^6 cells/mL in X-VIVO-15 medium ((Lonza BE02-061Q) supplemented with 5% v/v human AB serum (Sigma H4522), 1× penicillin/streptomycin (Gibco 15140122)) either in the presence of GAD65 P10 30-mer antigen between 20-50 μg/mL or absence of antigen (negative control). Peptide response was measured by 3H radioactive thymidine incorporation on day 5 and day 7, by pulsing cell cultures with ^3H-thymidine (Perkin Elmer), as previously described (Mazza et al., 2002). Positive responses had corrected counts per minute (ccpm) counts >1000 and a stimulation index (SI)≥3, calculated as the fold-change of peptide stimulated condition over the negative control.
The workflow to design and validate tolerogenic apitopes (antigen processing independent T-cell epitopes) begins with identification of peptides predicted to bind to various HLA-DR molecules (pan-DR binders) using a combination of publicly available MHC-binding algorithms (FIG. 1A). In silico analyses identified 9 or 15 amino acid peptides within GAD65 that were extended to ˜30-mer peptides (FIG. 1B) to encourage antigen processing and presentation of a naturally processed epitope (Anderton et al., 2002). To test whether the designed 30-mer peptides could be correctly processed and preferentially induce immune responses in T1D patients, we screened for GAD65 30-mers responses in isolated peripheral blood mononuclear cells (PBMCs) from 20 non-diabetic healthy controls and 40 adults with T1D. […] On day 7 of the ^3H-thymidine incorporation assay, 20% (4/20) of healthy controls had shown a positive response to GAD65 P10 30-mer compared to 58% (23/40) of T1D patients (FIG. 1C).

## DAAWGGGLLMSRKHKWKLSGVERANSVTWN [P10 30-mer]
[1]
  IL-2 response from hybridoma SC3: strong IL-2 responses
[2]; T1D patients vs healthy controls, Mann-Whitney p=0.0146
  average magnitude of the proliferative response: significantly increased
[2]; T1D patients (23/40)
  positive response rate in 3H-thymidine incorporation assay: 58%
[2]; non-diabetic healthy controls (4/20)
  positive response rate in 3H-thymidine incorporation assay: 20%

Reference: patent US20260034200A1, “TOLEROGENIC PEPTIDES” (University of Birmingham, priority 2022, published 2026)
